system: methyltransferase NcpB; test: NcpB O-methyltransferase enzyme assay; conditions: with NcpB and SAM

Compound	substrate of NcpB (O-methylation)
germicidin A	not substrates
Cc1cc(O)cc(=O)o1	not substrates
Cc1cc(O)c(C)c(=O)o1 [4-hydroxy-3,6-dimethyl-2-pyrone]	not substrates
